From patent US20030207843A1, “Treatment of drug-resistant human immunodeficiency virus infection” (priority 1999, published 2003)
Read-outs that look alike come from different tables or passages of the source.

Columns and labels:
Type in all cases: cell-based
[1] = test system: HIV-1LAI (wild type, control); assay: p24 reduction assay in MT-2 cells, wild type virus
Experimental: (§1) Cells. MT-2 cells (AIDS Research and Reference Reagent Program, National Institute of Allergy and Infectious Diseases, National Institutes of Health) were maintained in RPMI 1640 supplemented with 10% fetal bovine serum (FBS; JRH Biosciences, Lenexa, Kans.), 10 mM HEPES buffer, 50 IU/ml penicillin and 50 μg/ml streptomycin.
Viruses. Stock virus was prepared by electroporating (BIO-RAD Gene Pulser®, Hercules, Calif.) MT-2 cells (1.3×10^7 cells) with 5-10 μg of plasmid DNA encoding a proviral clone of HIV-1LAI (see Nguyen, et. al., Antimicrob. Agents Chemother. 38:2409-2414, and Peden, et. al., Virology 185: 661-672.). At peak cytopathic effect (generally 5-7 days post-transfection), culture supernatants were harvested and stored at −80° C. Viral infectivity titers were determined in threefold endpoint dilution assays conducted in MT-2 cells (six wells per dilution). The 50% tissue culture infective dose (TCID50) was calculated using the Reed and Muench equation (see Reed, et. al., Am. J. Hyg. 27:493-496).
(§2) Antiviral Susceptibility Assays. The antiviral activity of each compound […], followed by incubation in the presence of three-fold serial drug dilutions (3 wells per dilution) (see Mellors, et. al., Antimicrob. Agents Chemother. 39:1087-1092). Five or seven days after infection, culture supernatants were harvested, lysed with 0.5% triton-X 100 and assayed for p24 antigen concentration using a commercial ELISA assay (DuPont, NEN Products, Wilmington, Del.). The antiviral activity of the compounds is expressed as the IC50, which is the concentration required to inhibit 50% of p24 antigen production. The fold-resistance of a test virus is calculated by dividing the IC50 of the test virus by the IC50 of the HIV-1LAI control virus.
Cultures of MT-2 cells infected with either wild type (xxLAI) or with the drug-resistant strains of HIV-1 listed above were treated with lipid analogs of PFA (B-PFA, MB-PFA, or EB-PFA). The μM concentration required to produce 50% inhibition of replication of the drug-resistant strain of HIV (EC50) was determined as shown in Table 1. Drug effects were measured by assaying p24 (a viral protein) in the culture medium.

[2] = test system: multidrug-resistant HIV-1 clinical isolate 11588p1; assay: p24 reduction assay in MT-2 cells, 11588p1
Experimental: as §1, §2
(§3) The multi-drug resistant HIV-1 strains, 11163p1 and 11588p1, are human clinical isolates having the RT mutations indicated. HIV-1 strains treated with the lipid analogs of the present invention include wild type, e.g., xxLAI, and the like, single mutation, e.g., xxLAI MI 84V (resistant to 3TC), xxLAI L74V (resistant to ddI and ddC), xxLAI K65R (resistant to ddI, ddC, DAPD, DXG, tenofovir, and adefovir), xxLAI T215Y (resistant to AZT), and the like, double mutations, e.g., xxLAI M41 L/T215Y (resistant to AZT), xxLAI MI 84V/T215Y (resistant to 3TC and AZT), and the like, and multiple mutations, e.g., xxLAI 4XAZT ((D67N, K70R, T215Y, K219Q) resistant to AZT)), xxLAI 4XAZT/M184V ((D67N, K70R, M 184V, T215Y, K219Q) resistant to AZT and 3TC), xxLAI M5456-12 (AZT+NNRTI resistant: D67N, K70R, K103N, T215Y), xxLAI G2-3g (AZT/3TC co-resistant: M41L, D67N, M184V, H208Y, L210W, R211K, L214F, T215Y, 1293V, E297A), 11163 (multinucleoside resistant virsus: M41L, A62V, V751, F77L, K103N, F116Y, Q151M, Y181C, M184V), 11588 (multinucleoside resistant virsus: A62V, K65R, K70R, V751, F77L, F116Y, Q151M, M184V, K219Q), and the like.

[3] = test system: HIV-1LAI Q161L/H208Y; assay: p24 reduction assay in MT-2 cells, Q161L/H208Y; settings: Table 7; for EC50: Q161L/H208Y; for Fold-resistance: Q161L/H208Y relative to wild type virus
Experimental: as §1
(§4) Antiviral Susceptibility Assays. The antiviral activity of each compound was determined by inoculating MT-2 cells with HIV-1LAI at a multiplicity of infection (MOI) of 0.01 TCID50/cell, followed by incubation in the presence of three-fold serial drug dilutions (3 wells per dilution) (see Mellors, et. al., Antimicrob. Agents Chemother. 39:1087-1092). Five or seven days after infection, culture supernatants were harvested, lysed with 0.5% triton-X 100 and assayed for p24 antigen concentration using a commercial ELISA assay (DuPont, NEN Products, Wilmington, Del.). The antiviral activity of the compounds is expressed as the IC50, which is the concentration required to inhibit 50% of p24 antigen production. The fold-resistance of a test virus is calculated by dividing the IC50 of the test virus by the IC50 of the HIV-1LAI control virus.
(§5) Generation of Mutant Recombinant HIV-1. HIV-1 containing the desired mutations were generated by oligonucleotide directed mutagenesis (Altered Sites II, Promega) as previously described (Mellors, et. al., Molecular Pharm. 41:446-451). After mutagenesis, mutant RT was subcloned into the pxxHIV-1LAI cloning vector using the silent XmaI and XbaI restriction sites located at the 5′ and 3′ ends of RT. Clones were DNA sequenced to verify the presence of the desired mutation(s) and electroporated into MT-2 cells as described above to generate infectious mutant recombinant HIV-1.
Mutant RT was generated via oligonucleotide-directed mutagenesis and ligated into the pXXHIV-1LAI cloning vector. Cloning was facilitated by the presence of two silent restriction sites at the 5′ and 3′ ends (Xma1 and Xba1, respectively) of pXXHIV-1LAI RT. Infectious mutant recombinant HIV-1 was generated by electroporating MT-2 cells with mutated pXXHIV-1LAI clones. The presence of the desired mutations was verified by DNA sequencing.
Invention compounds were also evaluated against a panel of HIV-1LAI derived recombinants resistant to PFA and the PFA invention compounds, as shown in Table 7.

[4] = test system: HIV-1LAI T215Y; assay: p24 reduction assay in MT-2 cells, T215Y; settings: Table 1, MOI 0.01
Experimental: as §1, §4, §5
Mutant RT was generated via oligonucleotide-directed mutagenesis and ligated into the pXXHIV-1LAI cloning vector. Cloning was facilitated by the presence of two silent restriction sites at the 5′ and 3′ ends (Xma1 and Xba1, respectively) of pXXHIV-1LAI RT. […]

[5] = test system: HIV-1 G2-3g (molecularly cloned isolate co-resistant to AZT and 3TC); assay: p24 reduction assay in MT-2 cells, G2-3g; settings: for EC50: G2-3g; for Fold-resistance: G2-3g relative to wild type virus
Experimental: as §1, §4, §3

[6] = Table 1, HIV-1LAI(control), MOI 0.01, p24, MT-2 cells, read-out: EC50
[7] = Table 2, HIV-1LAI(control), MOI 0.05, read-out: EC50
[8] = Table 3, Wild type, mean ± SD, at least three experiments, read-out: EC50
[9] = Table 4, HIV-1LAI wild type, mean ± SD, two or three experiments, read-out: EC50
[10] = Table 5, Wild type, mean ± SD, read-out: EC50
[11] = Table 6, baseline virus HIV-1LAI passage 0, read-out: EC50

| SMILES | EC50 [1, 6] [µM] | EC50 [1, 7] [µM] | EC50 [1, 8] [µM] | EC50 [1, 9] [µM] | EC50 [1, 10] [µM] | EC50 ([2]; Table 2, MOI 0.05) [µM] | EC50 [3] [µM] | Fold-resistance [3] | EC50 [4] [µM] | EC50 ([5]; Table 1, MOI 0.01) [µM] | Fold-resistance ([5]; Table 5) | EC50 ([5]; Table 5, mean ± SD) [µM] | EC50 [1, 11] [µM] | also measured |
| --- | --- | --- | --- | --- | --- | --- | --- | --- | --- | --- | --- | --- | --- | --- |
| Cc1cn([C@H]2C[C@H](N=[N+]=[N-])[C@@H](CO)O2)c(=O)[nH]c1=O [AZT, 3′-Azido-3′-deoxythymidine] | – | – | – | – | – | – | – | – | – | – | – | – | – | EC50 ([1]; Human immunodeficiency virus 1, MT2, Table 8, Wild type, mean ± SD, read-out: AZT EC50): 0.021 ± 0.008 µM |
| CCCCCCCCCCCCCCCCCCOC[C@@H](O)COP(=O)(O)C(=O)O [B-PFA, 1-O-octadecyl-sn-glycero-3-PFA] | 1.9 | 3.01 | 1.79 ± 0.81 | 1.8 ± 0.81 | 1.79 ± 0.81 | 9.31 | > 30 | (>17.2) | 0.84 | 1.47 | (0.9) | 1.67 ± 0.95 | – | – |
| CCCCCCCCCCCCCCCCCCOC[C@H](COP(=O)(O)C(=O)O)OCC [EB-PFA, 1-O-octadecyl-2-O-ethyl-sn-glycero-3-PFA] | 0.22 | 0.76 | 0.65 ± 0.36 | 0.7 ± 0.36 | 0.65 ± 0.36 | 0.73 | 7.02 | – | 0.14 | 0.32 | (0.5) | 0.3 ± 0.04 | 0.09 | – |
| CCCCCCCCCCCCCCCCCCOC[C@H](COP(=O)(O)C(=O)O)OC [MB-PFA, 1-O-octadecyl-2-O-methyl-sn-glycero-3-PFA] | 0.35 | 1.04 | 0.5 ± 0.48 | 0.5 ± 0.48 | 0.5 ± 0.48 | 1.16 | 12.8 | 9.00 (17.7) | 0.27 | 0.26 | (0.8) | 0.4 ± 0.26 | 0.07 | – |
| O=C(O)P(=O)(O)O [PFA, phosphonoformate, reference compound] | – | – | – | – | – | – | – | – | – | – | (0.5) | – | – | EC50 ([1]; Human immunodeficiency virus 1, MT2, Table 1, HIV-1LAI(control), MOI 0.01, p24, MT-2 cells, read-out: EC50): 18.3 µM; EC50 ([1]; Human immunodeficiency virus 1, MT2, Table 2, HIV-1LAI(control), MOI 0.05, read-out: EC50): 20.1 µM; EC50 ([1]; Human immunodeficiency virus 1, MT2, Table 3, Wild type, mean ± SD, at least three experiments, read-out: EC50): 17.7 ± 10.1 µM; EC50 ([1]; Human immunodeficiency virus 1, MT2, Table 4, HIV-1LAI wild type, mean ± SD, two or three experiments, read-out: EC50): 17.7 ± 10.1 µM; EC50 ([1]; Human immunodeficiency virus 1, MT2, Table 5, Wild type, mean ± SD, read-out: EC50): 17.7 ± 10.1 µM; EC50 ([1]; Human immunodeficiency virus 1, MT2, Table 6, baseline virus HIV-1LAI passage 0, read-out: EC50): 5.27 µM; EC50 ([1]; Human immunodeficiency virus 1, MT2, Table 7, Wild type, mean (SD in next grid row), read-out: EC50): 13.1 µM; EC50 ([2]; Human immunodeficiency virus 1, MT2, Table 2, MOI 0.05): 23.5 µM; EC50 ([3]; Human immunodeficiency virus 1, MT2): 126 µM; EC50 ([5]; Human immunodeficiency virus 1, MT2, Table 1, MOI 0.01): 7.6 µM; EC50 ([5]; Human immunodeficiency virus 1, MT2, Table 5, mean ± SD): 8.85 ± 3.49 µM |
